Laboratory results: ChEMBL document CHEMBL1121748, “Antimycotic imidazoles. 5. Synthesis and antimycotic properties of 1-[[2-aryl-4-(arylalkyl)-1,3-dioxolan-2-yl]methyl]-1H-imidazoles” (1981)

Assays:
[1] = system: Streptococcus pyogenes; test: Antibacterial activity against Streptococcus pyogenes; type: functional
[2] = system: Sporothrix schenckii; test: Antifungal activity against Sporothrix schenck ii; type: functional
[3] = system: Phialophora verrucosa; test: Antifungal activity against Phialophora verrucosa; type: functional
[4] = system: Saprolegnia; test: Antifungal activity against Saprolegnia species; type: functional
[5] = system: Trichophyton rubrum; test: Antifungal activity against Trichophyton rubrum; type: functional
[6] = system: Erysipelothrix rhusiopathiae; test: Antibacterial activity against Erysipelothrix insidiosa; type: functional
[7] = system: Staphylococcus haemolyticus; test: Antibacterial against Staphylococcus hemolyticus; type: functional
[8] = system: Cryptococcus neoformans; test: Antifungal activity against Cryptococcus neoformans; type: functional
[9] = system: Mucor; test: Antifungal activity against Mucor species; type: functional
[10] = system: Microsporum canis; test: Antifungal activity against Microsporum canis; type: functional
[11] = system: Candida tropicalis; test: Antifungal activity against Candida tropicalis; type: functional
[12] = system: Trichophyton benhamiae; test: Antifungal activity against Trichophyton mentagrophytes; type: functional, trychophyton mentagrophytes
[13] = system: Candida albicans; test: Antifungal activity against Candida albicans; type: functional
[14] = system: Aspergillus fumigatus; test: Antifungal activity against Aspergillus fumigatus; type: functional
[15] = Ratio of animals cured to that of animals infected, tested in vivo for antifungal activity against cutaneous candidosis in guinea pig; 0/2; type: functional; note: test concentration or dose not given here
[16] = Ratio of animals cured to that of animals infected, tested in vivo for antifungal activity against vaginal candidosis in rat; 0/2; note: test concentration or dose not given here

Compound	Inhibition [1] [µg/mL]	Inhibition [2] [µg/mL]	Inhibition [3] [µg/mL]	Inhibition [4] [µg/mL]	Inhibition [5] [µg/mL]	Inhibition [6] [µg/mL]	Inhibition [7] [µg/mL]	Inhibition [8] [µg/mL]	Inhibition [9] [µg/mL]	Inhibition [10] [µg/mL]	Inhibition [11] [µg/mL]	Inhibition [12] [µg/mL]	Inhibition [13] [µg/mL]	Inhibition [14] [µg/mL]	Ratio [15]	Ratio [16]
Clc1ccc(C2(Cn3ccnc3)OCC(c3ccccc3Cl)O2)c(Cl)c1 (stereo not given)	<1	10	100	100	<1	<1	1	<1	100	10	100	<1	100	100	–	–
Cc1ccc(C2(Cn3ccnc3)OCC(c3ccc(Cl)cc3)O2)cc1 (stereo not given)	<1	10	100	100	<1	<1	10	<1	10	<1	100	<1	>100	<1	0	–
Cc1ccc(C2(Cn3ccnc3)OCC(c3ccc(Cl)cc3Cl)O2)cc1 (stereo not given)	<1	10	100	100	<1	<1	1	10	100	10	>100	<1	>100	100	0	–
Clc1ccc(C2COC(Cn3ccnc3)(c3ccccc3Cl)O2)c(Cl)c1 (stereo not given)	<1	<1	100	10	<1	1	10	<1	>100	<1	>100	<1	>100	<1	–	0
Clc1ccc(C2COC(Cn3ccnc3)(c3ccccc3Cl)O2)cc1 (stereo not given)	<1	10	100	10	<1	<1	100	100	100	<1	100	<1	100	<1	–	–
COc1ccc(C2(Cn3ccnc3)OCC(c3ccc(Cl)cc3)O2)cc1 (stereo not given)	10	10	100	100	10	10	100	>100	100	<1	>100	<1	>100	<1	0	–
Clc1ccc(C2(Cn3ccnc3)OCC(c3ccccc3)O2)cc1 (stereo not given)	<1	10	100	100	<1	1	10	10	100	10	>100	<1	100	10	–	–
Clc1ccccc1C1(Cn2ccnc2)OCC(c2ccc(Br)cc2)O1 (stereo not given)	10	10	10	10	<1	10	10	<1	10	<1	10	<1	100	<1	–	–
Brc1ccc(C2COC(Cn3ccnc3)(c3ccccc3)O2)cc1 (stereo not given)	<1	10	100	100	<1	1	>100	10	100	<1	>100	<1	100	10	–	–
Clc1ccc(C2COC(Cn3ccnc3)(c3ccc(Br)cc3)O2)c(Cl)c1 (stereo not given)	1	100	>100	>100	<1	1	100	>100	100	10	>100	10	>100	>100	0	–
Clc1ccc(C2(Cn3ccnc3)OCC(c3ccc(Cl)cc3Cl)O2)cc1 (stereo not given)	<1	10	100	100	<1	1	10	10	100	10	>100	<1	100	100	–	0
Clc1ccc(C2(Cn3ccnc3)OCC(Cc3ccc(Br)cc3)O2)c(Cl)c1 (stereo not given)	<1	10	100	100	<1	<1	10	<1	<1	<1	>100	<1	10	10	–	0
